Assay results taken from patent publication US7309484B2, “Compositions and methods for screening antibacterial compounds” (priority 2003, dated 2007).
Values after ≈ are worked out from the molar mass of the structure shown. Where two headings read alike, the source gives them in different places. Bridge positions count the residues as written; N and C are the ends. Square brackets hold non-standard residues; d marks the D form. Peptide text beside a SMILES is read from it. * marks the point of attachment. Ileψ(thiazoline)Cys = CC[C@H](C)[C@H](N)C1=N[C@H](C(=O)*)CS1; dOrn = NCCC[C@@H](N)C(=O)O

Tests used:
Type in all cases: cell-based, Bacillus subtilis
[1] = tested on: B. subtilis CU1065 and isogenic deletion mutants; assay: Minimal inhibitory concentration (MIC), microtiter-plate assay; conditions: for MIC: Bacillus subtilis
Protocol: Since B. subtilis is closely related to the bacitracin-producing strains, it seemed likely that a similar system as described for B. licheniformis could exist in CU1065. The identification of two loci encoding ABC transporters that are under the bacitracin-inducible control of a two-component system supported this hypothesis. […] All strains were grown in microtiter-plates for 4 hours after dilution into LB medium containing the indicated concentrations of bacitracin. The experiment was done in triplicate and a representative result is shown. Strains used were: CU1065 (black squares), ‘bacR’ (HB0927, open diamonds), ‘bacAB’ (HB0928, black diamonds), ‘sigM’ (HB0031, open circles), ‘bcrC’ HB0106 (closed circles), ‘bcrC/bacAB’ (HB0937, black triangle). Compare also with Table 1.
Determination of the minimal inhibitory concentration (MIC): MIC-assays were performed in microtiter plates using a ‘Tecan Spectra Rainbow’ microtiter plate reader. […] Tenfold dilution of these cultures were inoculated in a total volume of 200 μl/well with increasing quantities of bacitracin, ranging from 0.01 to 1000 μg/mL (final concentration). The plates were incubated at 37° C. and the O.D.600 was read after 4 hours, when cultures had reached their final cell density. All experiments were performed in triplicate.

[2] = tested on: B. subtilis wild-type strain CU1065 gene expression; assay: DNA microarray analysis of the bacitracin stimulon, wild-type CU1065; conditions: wild type CU1065, 5 min after bacitracin
Source text: The bacitracin stimulon of B. subtilis was examined using global transcriptome analysis. […] Under most conditions tested, about 60-70 genes were induced greater than 5-fold. […] The scatter-plot represents the data sets obtained for strain HB0920 (yvqH was still detected as bacitracin-inducible due to the presence of a remaining region near the 5′-end of the gene). […] Members of the σ^M (white open squares) and σ^B (small black triangles) regulon are highlighted. All other gene signals are represented as small gray diamonds. […]
The bacitracin stimulon in the wild-type strain CU1065 was qualitatively similar to that of the liaH-deletion mutant HB0920 as judged by a comparison of the induction profile at 5 min, as illustrated in FIG. 8. […] Relative hybridization intensities are plotted for genes as measured for CU1065 (x axis) and HB0920 (y axis). […]
This locus is therefore a candidate for negative regulation by LiaH. In addition, expression of the bacAB and yvcRS loci was threefold greater in CU1065 than in the liaH mutant when both were measured 5 min after bacitracin treatment. […]
Each slide contains 9220 features corresponding to duplicate copies of each open reading frame, additional PCR products for some ORFs, rRNA genes, and other controls. […] Fluorescent signal intensity data was quantified using ArrayVision software (Molecular Dynamics) and normalized to the total detectable mRNA. […]

[3] = tested on: liaH expression (liaH::pMUTIN, strain BFS2469); assay: Quantitative β-galactosidase assay, strain BFS2469; conditions: bacitracin 100 μg/mL, 30 minutes
Protocol: Specifically, cultures of B. subtilis strain BFS2469 (liaH::pMUTIN) and BFS2470 (liaI::pMUTIN) were grown in LB medium to midlog phase, 2 mL for the un-induced control sample were harvested, and the remaining culture was induced with the three antibiotics for 30 minutes, before the cells of the induced sample were harvested. All samples were taken in duplicate from two independent cultures and the standard deviation is indicated by error bars.
Measurement of induction by β-galactosidase assays: Cells were inoculated from fresh overnight LB-plates and grown in LB-medium at 37° C. with aeration until they reached an O.D.600=0.45. 2 mL of cultures were harvested (un-induced control) and the cell pellets were shock frozen and kept at −70° C. The cultures were induced by addition of antibiotics to a final concentration of: bacitracin (100 μg/mL), tunicamycin (50 μg/mL) or vancomycin (2 μg/mL) and incubated for additional 30 min at 37° C. 2 mL of the cultures were harvested as described above (induced sample). The pellets were re-suspended in 1 mL of working buffer and assayed for β-galactosidase activity as described with normalization to cell density (Miller, 1972, the entire teaching of which is incorporated herein by reference).

[4] = tested on: B. subtilis strain BFS2470; assay: Concentration-dependent induction/killing experiments
Protocol: Concentration-dependent induction/killing experiments were performed for bacitracin, nisin, ramoplanin and vancomycin as shown in FIG. 7. In all four cases the induction of liaI occurred in a concentration-dependent manner (FIG. 7a), reaching a maximum at an antibiotic concentration of about 10 μg/ml (1 μg/mL for vancomycin). The time of antibiotic addition is indicated by an arrow. The antibiotic concentrations affecting the induction of PliaI according to the β3-galactosidase assay are indicated by white symbols. The corresponding concentrations are: bacitracin ([…]), nisin (50, 70 and 100 μg/ml), ramoplanin (20, 50 and 100 μg/mL) and vancomycin (5, 10, 50 and 100 μg/mL).
This finding correlates well with the bactericidal effects of these antibiotics as inferred from the dramatic decrease of optical density: there is little effect of bacitracin and vancomycin on cell growth during the first 30-60 min after addition even at high concentrations (FIG. 7b).
The cultures were incubated with aeration at 37° C.

Compound `CC[C@H](C)[C@H](N)C1=N[C@H](C(=O)N[C@@H](CC(C)C)C(=O)N[C@H](CCC(=O)O)C(=O)N[C@H](C(=O)N[C@H]2CCCCNC(=O)[C@H](CC(N)=O)NC(=O)[C@@H](CC(=O)O)NC(=O)[C@H](Cc3cnc[nH]3)NC(=O)[C@@H](Cc3ccccc3)NC(=O)[C@H]([C@@H](C)CC)NC(=O)[C@@H](CCCN)NC2=O)[C@@H](C)CC)CS1` [Bacitracin] ({Ileψ(thiazoline)Cys}-L[dE]IK[dOrn]I[dF]H[dD]N; lactam 4-C) has an MIC ([1]; 4 h, read-out: Bacitracin MIC, mutant in bacAB (ytsCD), LB, 4 hours) of 10 µg/mL (≈ 7.03 µM), an MIC ([1]; 4 h, read-out: Bacitracin MIC, mutant in bcrC, LB, 4 hours) of 25 µg/mL (≈ 17.6 µM) and an MIC ([1]; read-out: bacitracin-resistance (MIC), bcrC/bceAB double mutant (HB0937)) of 2.5 µg/mL (≈ 1.76 µM). The MIC ([1]; read-out: bacitracin-resistance (MIC), wild type strain (CU1065)) was 500 µg/mL (≈ 351 µM), the “reduction in MIC compared to CU1065” value ([1]; bceAB deletion) was 50 fold and the “reduction in MIC compared to CU1065” value ([1]; bceR deletion) was 50 fold. The “decrease of bacitracin-resistance compared to the wild type strain” value ([1]; bcrC/bceAB double mutant) was 200 fold, the “induction of yhcYZ/yhdA locus” value [2] was “not induced” and the “fold increase in liaH expression” value [3] was 90 fold. For the same compound, the “lacZ-expression at higher concentration” value ([4]; FIG. 7a, in words) was “remained elevated”, the “effect on cell growth / optical density” value ([4]; high concentrations, FIG. 7b, in words) was “little effect” and the “antibiotic concentration at maximum induction of liaI” value ([4]; β-galactosidase assay after 30 min, 0.01 to 100 μg/ml tested) was “about 10 μg/ml”.
